Results taken from PubChem BioAssay AID248 (DTP/NCI, 2004).
“And” between values parts separate entries of the source, which are not always exact repeats. Equal values may be shown once. Toxic doses and inconclusive results are not listed. Cut-off read from the data, not from the text of the source: active = T/C of 150% or more; inactive = T/C below 125%.

Tested on: L1210 leukemia ip in BDF1 mice, survival T/C
Experiment: NCI In Vivo Anticancer Drug Screen. Data for tumor model L1210 Leukemia (intraperitoneal) in B6D2F1 (BDF1) mice
Details: endpoint: mean survival time, higher = longer survival
Outline: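 Each compound was tested against a transplantable tumor grown in mice. The endpoint was survival, with treated animals benchmarked against vehicle controls as a simple ratio.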

[1] = dose: 12.5 mg/kg/injection, schedule: Q01DX001 (ip), vehicle: saline
[2] = dose: 25.0 mg/kg/injection, schedule: Q01DX001 (ip), vehicle: saline
[3] = dose: 50.0 mg/kg/injection, schedule: Q01DX001 (ip), vehicle: saline
[4] = dose: 100.0 mg/kg/injection, schedule: Q01DX001 (ip), vehicle: saline
[5] = dose: 200.0 mg/kg/injection, schedule: Q01DX001 (ip), vehicle: saline
[6] = dose: 400.0 mg/kg/injection, schedule: Q01DX001 (ip), vehicle: saline
[7] = dose: 100.0 mg/kg/injection, schedule: Q01DX009 (ip), vehicle: Klucel (hydroxypropylcellulose) (HPC)
[8] = dose: 200.0 mg/kg/injection, schedule: Q01DX009 (ip), vehicle: Klucel (hydroxypropylcellulose) (HPC)
[9] = dose: 100.0 mg/kg/injection, schedule: Q01DX001 (ip), vehicle: saline with Tween-80
[10] = dose: 200.0 mg/kg/injection, schedule: Q01DX001 (ip), vehicle: saline with Tween-80
[11] = dose: 400.0 mg/kg/injection, schedule: Q01DX001 (ip), vehicle: saline with Tween-80
[12] = dose: 100.0 mg/kg/injection, schedule: Q04DX003 (ip), vehicle: Klucel (hydroxypropylcellulose) (HPC)
[13] = dose: 200.0 mg/kg/injection, schedule: Q04DX003 (ip), vehicle: Klucel (hydroxypropylcellulose) (HPC)
[14] = dose: 400.0 mg/kg/injection, schedule: Q04DX003 (ip), vehicle: Klucel (hydroxypropylcellulose) (HPC)
[15] = dose: 100.0 mg/kg/injection, schedule: Q04DX003 (ip), vehicle: saline with Tween-80
[16] = dose: 200.0 mg/kg/injection, schedule: Q04DX003 (ip), vehicle: saline with Tween-80
[17] = dose: 400.0 mg/kg/injection, schedule: Q04DX003 (ip), vehicle: saline with Tween-80
[18] = dose: 100.0 mg/kg/injection, schedule: Q01DX001 (ip), vehicle: other
[19] = dose: 200.0 mg/kg/injection, schedule: Q01DX001 (ip), vehicle: other
[20] = dose: 400.0 mg/kg/injection, schedule: Q01DX001 (ip), vehicle: other
[21] = dose: 100.0 mg/kg/injection, schedule: Q01DX009 (ip), vehicle: saline with Tween-80
[22] = dose: 200.0 mg/kg/injection, schedule: Q01DX009 (ip), vehicle: saline with Tween-80
[23] = dose: 400.0 mg/kg/injection, schedule: Q01DX009 (ip), vehicle: saline with Tween-80
[24] = dose: 100.0 mg/kg/injection, schedule: Q01DX009 (ip), vehicle: saline
[25] = dose: 200.0 mg/kg/injection, schedule: Q01DX009 (ip), vehicle: saline
[26] = dose: 400.0 mg/kg/injection, schedule: Q01DX009 (ip), vehicle: saline
[27] = dose: 100.0 mg/kg/injection, schedule: Q04DX002 (ip), vehicle: saline with Tween-80

Measured: T/C

NC(=O)C1=CNCCC1
inactive: dose: 6.25 mg/kg/injection, schedule: Q01DX001 (ip), vehicle: saline 98 % of control | [1] 104 % of control | [2] 101 % of control | [3] 93 % of control and 118 % of control | [4] 114 % of control | [5] 109 % of control | [6] 118 % of control

CCCCC(=O)N/N=C\c1cc([N+](=O)[O-])ccc1O
inactive: dose: 100.0 mg/kg/injection, schedule: Q01DX001 (ip), vehicle: carboxymethylcellulose (CMC) 91 % of control | dose: 200.0 mg/kg/injection, schedule: Q01DX001 (ip), vehicle: carboxymethylcellulose (CMC) 98 % of control | dose: 400.0 mg/kg/injection, schedule: Q01DX001 (ip), vehicle: carboxymethylcellulose (CMC) 87 % of control

Cc1ccc(N2CCN(CC(O)c3ccccc3)CC2)cc1 (stereo not drawn)
inactive: dose: 50.0 mg/kg/injection, schedule: Q01DX009 (ip), vehicle: Klucel (hydroxypropylcellulose) (HPC) 95 % of control | [7] 95 % of control | [8] 98 % of control

CN(C(=O)COc1ccc(N2C(N)=NC(N)=NC2(C)C)cc1Cl)c1ccc(S(=O)(=O)F)cc1
inactive: [9] 112 % of control | [10] 102 % of control | [11] 105 % of control

CN(C)C(=S)Oc1ccc(O)cc1
inactive: [9] 102 % of control | [10] 97 % of control | [11] 100 % of control

CCNC(=O)C(=O)c1ccccc1NC(C)=O
inactive: [12] 99 % of control | [13] 100 % of control | [14] 96 % of control

NNC(=O)CNc1ccccc1
inactive: dose: 50.0 mg/kg/injection, schedule: Q01DX001 (ip), vehicle: Klucel (hydroxypropylcellulose) (HPC) 100 % of control | dose: 100.0 mg/kg/injection, schedule: Q01DX001 (ip), vehicle: Klucel (hydroxypropylcellulose) (HPC) 110 % of control | dose: 200.0 mg/kg/injection, schedule: Q01DX001 (ip), vehicle: Klucel (hydroxypropylcellulose) (HPC) 117 % of control

COC(=O)C1CN1C(c1ccccc1)(c1ccccc1)c1ccccc1 (stereo not drawn)
inactive: [9] 92 % of control | [15] 94 % of control | [10] 100 % of control | [16] 98 % of control | [11] 90 % of control | [17] 90 % of control

N/C(=N\Nc1ccccc1)N[N+](=O)[O-]
inactive: dose: 175.0 mg/kg/injection, schedule: Q01DX001 (ip), vehicle: acetone 100 % of control | dose: 265.0 mg/kg/injection, schedule: Q01DX001 (ip), vehicle: acetone 96 % of control | dose: 400.0 mg/kg/injection, schedule: Q01DX001 (ip), vehicle: acetone 94 % of control | dose: 600.0 mg/kg/injection, schedule: Q01DX001 (ip), vehicle: acetone 104 % of control

CCC1([N+](=O)[O-])COP(=O)(OC(=O)c2ccco2)OC1 (stereo not drawn)
inactive: [4] 97 % of control | [5] 96 % of control | [6] 96 % of control

O=c1c2ccccc2nnn1-c1ccc([N+](=O)[O-])cc1
inactive: [4] 97 % of control | [5] 94 % of control | [6] 95 % of control

CCCCCCCCC(CCCC1CCCC1)CCCC1CCCC1
inactive: [9] 98 % of control | [10] 94 % of control | [11] 96 % of control

O=C1c2cccc3cccc(c23)C(=O)N1O
inactive: [18] 104 % of control | [19] 98 % of control | [20] 106 % of control

COc1ccc(Cc2ccc(OC)cc2)cc1
inactive: [3] 96 % of control | [4] 96 % of control | [5] 96 % of control | [6] 90 % of control

CCN(CC)C(=S)[S][Sn]([c]1ccccc1)([c]1ccccc1)[c]1ccccc1
inactive: dose: 100.0 mg/kg/injection, schedule: Q01DX001 (ip), vehicle: steriod suspending solution 109 % of control | dose: 200.0 mg/kg/injection, schedule: Q01DX001 (ip), vehicle: steriod suspending solution 98 % of control | dose: 400.0 mg/kg/injection, schedule: Q01DX001 (ip), vehicle: steriod suspending solution 98 % of control

C=CN1C(=O)NC(C)(CC(C)C)C1=O (stereo not drawn)
inactive: [21] 104 % of control | [22] 91 % of control | [23] 92 % of control

COc1cc(OC)cc(C2N(Cc3ccc(OC)c(OC)c3)CCN2Cc2ccc(OC)c(OC)c2)c1
inactive: [21] 100 % of control | [15] 104 % of control | [22] 108 % of control | [16] 100 % of control | [23] 101 % of control | [17] 98 % of control

O=CNC(O)C(Cl)(Cl)Cl (stereo not drawn)
inactive: [24] 98 % of control | dose: 100.0 mg/kg/injection, schedule: Q04DX003 (ip), vehicle: saline 109 % of control | [25] 89 % of control | dose: 200.0 mg/kg/injection, schedule: Q04DX003 (ip), vehicle: saline 95 % of control | [26] 89 % of control | dose: 400.0 mg/kg/injection, schedule: Q04DX003 (ip), vehicle: saline 95 % of control

O=C(Nc1cccc(C2=NCCN2)c1)c1ccc(C(=O)Nc2cccc(C3=NCCN3)c2)c([N+](=O)[O-])c1
inactive: dose: 1.25 mg/kg/injection, schedule: Q01DX Z (ip), vehicle: saline 93 % of control | dose: 2.5 mg/kg/injection, schedule: Q01DX Z (ip), vehicle: saline 90 % of control | dose: 5.0 mg/kg/injection, schedule: Q01DX Z (ip), vehicle: saline 86 % of control

O=C(Nc1cccc(C(F)(F)F)c1)c1ccc(C(=O)Nc2cccc(C(F)(F)F)c2)cc1
inactive: [15] 95 % of control | [16] 90 % of control | [23] 96 % of control | [17] 95 % of control

O=C(CCl)NCCCC1CCCCC1
inactive: dose: 12.5 mg/kg/injection, schedule: Q04DX002 (ip), vehicle: saline 100 % of control | dose: 25.0 mg/kg/injection, schedule: Q04DX002 (ip), vehicle: saline 96 % of control | dose: 50.0 mg/kg/injection, schedule: Q04DX002 (ip), vehicle: saline 104 % of control

CCOC(=O)C1CCCC23CC(CC12)C(C)(C)C3Br (stereo not drawn)
inactive: [7] 100 % of control | [12] 94 % of control | [8] 94 % of control | [13] 95 % of control | dose: 400.0 mg/kg/injection, schedule: Q01DX009 (ip), vehicle: Klucel (hydroxypropylcellulose) (HPC) 94 % of control | [14] 103 % of control

CCCCNC(=O)C1CCC(CC2CCCCC2)CC1 (stereo not drawn)
inactive: [27] 90 % of control | dose: 200.0 mg/kg/injection, schedule: Q04DX002 (ip), vehicle: saline with Tween-80 105 % of control | dose: 400.0 mg/kg/injection, schedule: Q04DX002 (ip), vehicle: saline with Tween-80 94 % of control

O=C(O)CCBr
inactive: [4] 93 % of control | [5] 104 % of control

CCC(NC(=O)OCc1ccccc1)C(=O)O (stereo not drawn)
inactive: [15] 98 % of control | [16] 93 % of control | [17] 97 % of control

CCN(CC)CC(=O)NCC(C)(CCN1CCOCC1)c1cccc2ccccc12 (stereo not drawn)
inactive: [24] 105 % of control | [25] 105 % of control | [26] 110 % of control

c1cc[c]2c(c1)Oc1cccc[c]1[Sn]21[c]2ccccc2Oc2cccc[c]21
inactive: [18] 91 % of control | [19] 96 % of control | [20] 89 % of control

O=C(O)c1cccc(CCl)c1
inactive: [27] 95 % of control

CC[N+](CC)(CC)CCCNC(c1ccccc1)C(Cl)(Cl)Cl (stereo not drawn)
inactive: [1] 95 % of control | [2] 97 % of control | [3] 95 % of control
